This is an account of results in patent publication US20090214514A1, “GUS3 NEUROPEPTIDES FOR REGULATING HYPOTHALAMIC FUNCTION” (priority 2004, published 2009).

No end group written: not given here.

This experiment can be described thus: Standard 24-hour thirst assay: acute effect of icv GUS3 peptides on food and water intake. As to conditions: rats thirsted 24 h, not food deprived, single ICV injection in 5 uL vehicle 15 min before reintroduction of water, intake recorded at 30 min, 60 min, 2 h, 3 h; for effect on food intake: vs vehicle (FIG. 8A); for effect on water intake: vs vehicle (FIG. 8B). In kind it is in vivo, Sprague Dawley rats. Here is the method:
Animals are injected with the substances after a 24 hr thirst period and food and water intake is monitored at 30 minutes, 60 minutes, 2 hours, 3 hours, and 24 hours.
Thirty-six regular Sprague Dawley rats (Charles River, Germany) weighing approximately 250 gram at the start of the experiment were used for these experiments. All animals were kept under a 12/12 L/D cycle (lights on at 0300) and in temperature and humidity controlled rooms. The animals were allowed a 5 day acclimatisation period after arrival to the test facility in order to reduce stress effects.
All experiments are conducted in accordance with internationally accepted principles for the care and use of laboratory animals and are approved by the Danish committee for animal research. Under Hypnorm Dormicum (Nomeco A/S, Copenhagen Denmark) anesthesia all animals were stereotaxically equipped with a stainless steel cannula aimed at the lateral ventricle (1 mm caudal and 1.5 mm lateral from bregma and 4 mm depth). During a 7 day recovery period, the rats were handled daily in order to accustom them to the experimental procedure.
The following peptides were ordered from Schafer-N, Copenhagen (see also example 2):
The animals were divided into 4 weight-matched groups prior to the test: • Group 4 Vehicle control (5 μL PBS) • Group 3 GUS3 C (10 ug) icv in 5 uL vehicle • Group 2 GUS3 M (1 ug) icv in 5 uL vehicle • Group 1 GUS3 N (10 ug) icv in 5 uL vehicle
The rats were thirsted but not food deprived twenty-four hours before the experiment. Fifteen minutes prior to reintroduction of water (time=0) the animals received an ICV injection of […] of one of the 3 peptides dissolved in 5 μL vehicle or of vehicle alone. Water and food intake was recorded at time=30 minutes, 60 minutes, 2 hour, 3 hours and 24 hours.
The data are evaluated by relevant statistical analyses (Statview software). Results are presented as mean±SEM (standard error of the mean). Statistical evaluation of the data is carried out using one-way analysis of variance (ANOVA) with appropriate post-hoc analysis between control and treatment groups in cases where statistical significance is established (p<0.05; Scheffe or Bonferoni).

As for “ac-QFLKEGQLAAGTCEIVTLDRDSSQP (Ac-QFLKEGQLAAGTCEIVTLDRDSSQP; listed as Homo sapiens) [GUS3 N]”, the “effect on food intake” value is on record as “did not seem to affect” and the “effect on water intake” value is “did not seem to affect”.

On to “TIARQTARCAC (listed as Homo sapiens) [GUS3 M]”, for which the “effect on food intake” value was “did not seem to affect” and the “effect on water intake” value is given as “did not seem to affect”.
